# Counter-ions that a name gives are not always drawn.
# Tests used:
# HEK 293 cells = experiment: TPC assay (total protein content, proliferation); type: cell-based, human
# Experimental: (§1) The cytotoxic potential of the veterinary drug and its mixtures with cannabidiol at two non-toxic concentrations: 1.56 and 3.15 µg/mL, on the human SH-SY5Y, HepG2 and HEK 293 cell lines was assessed by decreased viability of the cells within five biochemical endpoints: mitochondrial activity and lysosomal activity (MTT assays, reducing the tetrazolium dye MTT 3-(4,5-dimethylthiazol-2-yl)-2,5-diphenyltetrazolium bromide and neutral red uptake (NRU) assays), total protein content (TPC assay), cellular membrane integrity (leakage lactate dehydrogenase (LDH) assay) and DNA synthesis (the bromodeoxyuridine/5-bromo-2′-deoxyuridine incorporation into the DNA cells (BrdU) assay) after 72 h exposition. Data obtained from the measurement of the optical density in these assays were transformed to percentages in relation to the negative control group (0.1% DMSO in medium), considered to be 100% for the MTT, NRU, TPC and BrdU assays and 0% for the LDH assay. 1% Trition-X 100 solution in medium was used as the positive controls, (Figure 3).
# (§2) The human neuroblastoma (SH-SY5H), hepatoma (HepG2) and kidney cells (HEK 293) cells were purchased from the American Type Culture Collection: ATCCCRL-2266,ATCC HB-8065 and ATCC CRL-1573, respectively. These cells were cultured in Minimum Essential Medium Eagle (MEME) (ATCC). The media were supplemented with 10% FBS, 1% L-glutamine (and 1% antibiotic solution (P4333 Sigma). The cells were maintained in 75 cm^2 cell culture flasks (NUNC) in a humidified incubator at 37 °C in an atmosphere of 5% CO2. The medium was refreshed every two or three days, and the cells were subcultured by 0.25% trypsin–0.02% EDTA after reaching 70–80% confluence. Single cell suspensions were prepared and adjusted to a density of 2 × 10^5 cell/mL^−1 (SH-SY5H), 1 × 10^5 cell/mL^−1 (HepG2) and 1 × 10^5 cell/mL^−1 (HEK-293). The cell suspension was transferred to 96-well plates (100 µL/well) or Lab-Tek chamber slides (8 wells) (Nunc) for staining and incubated for 24 h before the exposure to the studied compounds. Stock solutions of tiamulin fumarate and cannabidiol were prepared in DMSO and diluted with culture medium to obtain a concentration range from 1.56 to 200 µg/mL and 1.56 or 3.156 µg/mL, respectively. The selection of tiamulin concentrations was based on data from the literature and pilot studies. The final concentration of DMSO was 0.1% in the medium. The same final concentrations of the solvent and the 1% Trition-X 100 solution were used as the negative and positive controls, respectively. A total of 500 µM hydrogen peroxide (H2O2) in was used as the positive control in the DCFH assay. […] As a negative control, cultured cells were grown in the absence of studied compounds. Each concentration was tested in six replicates in three independent experiments. Cytotoxicity was assessed after 72 h of exposure of the cells to the compounds. The medium was not changed during the incubation time.
# (§3) This assay is based upon staining the total cellular protein (proliferation). After the incubation, the medium containing the drug was removed, and 100 µL Coomassie brilliant blue R-250 dye was added to each well. The plate was shaken for 10 min. Then, the stain was removed and the cells were rinsed twice with 100 µL of washing solution (glacial acetic acid/ethanol/water, 5:10:85, v:v:v). After that, 100 µL of the desorbing solution (1 M potassium acetate) was added, and plates were shaken again for 10 min. The absorbance was measured at 595 nm in a Synergy 2 Multi-Mode Microplate Reader (BioTek® Instruments Inc., Winooski, VT, USA) using a blank as a reference. Cytotoxicity was expressed as a percentage of the negative control (0.1% DMSO in medium).
# (§4) This study was performed in three independent experiments. The obtained results are presented as mean values ± SD (standard deviation). […]
# HepG2 cells [1] = experiment: TPC assay (total protein content, proliferation); type: cell-based, human; details: HepG2, 72 h
# Experimental: as §1, §2, §3, §4
# SH-SY5Y cells [2] = experiment: TPC assay (total protein content, proliferation); type: cell-based, human; details: 72 h
# Experimental: as §1, §2, §3, §4
# HEK-293 cells [3] = experiment: DCFH-DA assay of reactive oxygen species (ROS); type: cell-based, human; details: HEK-293, lowest concentration of tiamulin, 72 h
# Experimental: as §2, with “Each concentration was tested in six replicates in three independent experiments.” left out, “The medium was not changed during the incubation time.” left out
# (§5) Intracellular levels of ROS were evaluated using the redox-sensitive fluorescent dye DCFH-DA [62]. […] After 72 h of incubation, the fluorescence of 2′,7′-dichlorofluorescein (DCF) was measured. Fluorescence was determined at 485/530 nm using a fluorescence microplate reader (BioTek® Instruments Inc., Winooski, VT, USA).
# HepG2 cells [4] = experiment: DCFH-DA assay of reactive oxygen species (ROS); type: cell-based, human; details: HepG2, lowest concentration of tiamulin, 72 h
# Experimental: as §2, with “Each concentration was tested in six replicates in three independent experiments.” left out, “The medium was not changed during the incubation time.” left out
# as §5
# SH-SY5Y cells [5] = experiment: DCFH-DA assay of reactive oxygen species (ROS); type: cell-based, human; details: lowest concentration of tiamulin, 72 h
# Experimental: as §2, with “Each concentration was tested in six replicates in three independent experiments.” left out, “The medium was not changed during the incubation time.” left out
# as §5
# HEK-293 cells [6] = experiment: Hoechst 33342/propidium iodide double staining (apoptosis and necrosis); type: cell-based; details: HEK-293, 72 h of incubation
# Description: (§6) After assessing the cytotoxicity of tiamulin and its mixtures with CBD, cell death was examined using the Hoechst 33342/propidium iodide (PI) double staining test (Figure 6). The intensity of the blue color and the presence of fragmented, blue-stained cellular components indicated apoptotic cell death after Hoechst 33342 staining. Necrotic cell death was identified by red fluorescence after PI staining. […] Mixtures of tiamulin and CBD caused a decrease in both apoptotic and necrotic cell death.
# (§7) The analysis of type and level of cellular death in the control and tested cultures was evaluated using fluorochrome staining, Hoechst 33342 (Sigma, St. Louis, MO, USA) and propidium iodide (Sigma, St. Louis, MO, USA) mixed for apoptosis and necrosis evaluation. Using an Axiaert 200 M fluorescence micrscope (Zeiss, Obercochem, Germany), dead cells were analyzed morphologically. Cells with pink fluorescent nuclei were considered necrotic, whereas those with blue fluorescent nuclei (fragmented and/or with condensed chromatin) were considered apoptotic.
# HepG2 cells [7] = experiment: as above; type: cell-based; details: HepG2, 72 h of incubation
# Description: as §6, §7
# SH-SY5Y cells [8] = experiment: as above; type: cell-based; details: 72 h of incubation
# Description: as §6, §7
# RAW264.7 macrophages = system: RAW264.7 macrophages; design: method as in PMID 35956888; details: cited from earlier work
# [9] = system: primary porcine hepatocytes; design: method as in PMID 10682383; details: 250 µM (123.5 µg/mL), 24 h of exposure; cited from earlier work
# [10] = Homo sapiens, read-out: inhibited concentration (IC50), TPC
structure (smiles),measurement,setting,value
"C=C[C@]1(C)C[C@@H](OC(=O)CSCCN(CC)CC)[C@]2(C)[C@H](C)CC[C@]3(CCC(=O)[C@H]32)[C@@H](C)[C@@H]1O [T, tiamulin fumarate]",tiamulin concentration that inhibited proliferation,"HEK 293 cells; HEK-293, 72 h",12.5 µg/mL
same,IC50,"HEK 293 cells; Homo sapiens, HEK293, 72 h, read-out: inhibited concentration (IC50), TPC",8.5 ± 0.6 µg/mL
same,tiamulin concentration that inhibited cell proliferation,HepG2 cells [1],50 µg/mL
same,IC50,HepG2 cells [1]; [10],26.7 ± 1.4 µg/mL
same,tiamulin concentration that decreased total protein content / inhibited proliferation,SH-SY5Y cells [2],25 µg/mL
same,IC50,SH-SY5Y cells [2]; [10],169 ± 3.3 µg/mL
same,increase in fluorescence intensity of the probes (ROS),HEK-293 cells [3],91%
same,increase in fluorescence intensity of the probes (ROS),HepG2 cells [4],44%
same,increase in fluorescence intensity of the probes (ROS),SH-SY5Y cells [5],66%
same,apoptotic and necrotic cell death,HEK-293 cells [6],significant apoptotic and necrotic profiles
same,apoptotic and necrotic cell death,HepG2 cells [7],significant apoptotic and necrotic profiles
same,apoptotic and necrotic cell death,SH-SY5Y cells [8],slight increase in apoptotic and necrotic cells
same,concentrations that did not result in 50% reduction in the macrophages' viability,RAW264.7 macrophages,up to 20 μg/mL
same,concentrations with no significant cytotoxicity,RAW264.7 macrophages,less than 5 μg/mL
same,ROS production in the hepatocyte culture,[9],increased ROS production

# Reference: paper PMC11676896, “Protective Action of Cannabidiol on Tiamulin Toxicity in Humans—In Vitro Study” (International Journal of Molecular Sciences, 2024)
